Where two headings read alike, the source gives them in different places.
Columns and labels:
[1] = target: HIPK2 (Homo sapiens, UniProt Q9H2X6); experiment: Drug affinity responsive target stability (DARTS) with pronase in 293T lysates; type: binding; design: endogenous in cells; host or cells: HEK 293T cell lysate; conditions: 1:10,000 pronase/cell lysate ratio
Protocol: Drug affinity responsive target stability (DARTS) method was used to identify protein targets of test compound as described previously by Pai et al. [Methods Mol Biol, 1263: 287-298, 2015]. Briefly, 293T lysates were incubated with test compound at room temperature for 1 hour. After incubation, cell lysates were subjected to proteolysis with various concentrations of pronase (#10165921001, Roche) at room temperature for 20 minutes. Proteolysis was stopped by addition of 5× protein loading buffer and heating at 90° C. for 5 minutes. Protein samples were subjected to western blot analysis.
Drug affinity responsive target stability (DARTS) has recently been developed to identify potential protein targets of small molecules. It is based on the principle that the binding of small molecule compound to the target protein changes the protein structure such that it can increase its stability and confer protection against proteolysis. In order to test whether compounds of the invention bind directly to HIPK2, we performed the DARTS experiments using pronase in presence of Example 1. […] Because HIPK2 abundance is quite low in many known cell types, we overexpressed His6-tagged HIPK2 in 293T cells for testing its interaction with the endogenous Smad3. The expression of His6-HIPK2 and Smad3 in 293T cells was confirmed by western blot. We pulled down His6-HIPK2 using cobalt beads and checked for the presence of Smad3 in cells treated with two different doses of Example 1.

[2] = tested on: UUO mice; experiment: Unilateral ureteral obstruction (UUO) mouse model of renal fibrosis; type: in vivo; conditions: for fibrosis at 14 days post-surgery (picosirius red, Masson's trichrome, Collagen I immunofluorescence): administration starting at day 7 post-surgery (day 7 to 14)
Protocol: Tg26 mice of FVB/N genetic background bearing a defective HIV-1 provirus lacking gag-pol have been described by Feng et al. [J Am Soc Nephrol 2009; 20: 2138-2146]. Six-week old heterozygous Tg26 mice were used in this study. Wildtype littermates were used as controls. Mice in the treatment group received test compound dissolved in DMSO and diluted in saline (5% DMSO) by oral gavage at a dose of 200 μg/kg body weight per day. Mice in the control group received the same volume of 5% DMSO/saline vehicle. The mice were treated for a total of 4 weeks and sacrificed at age of 10 weeks. The UUO model was established in male C57BL/6 mice (The Jackson Laboratory) by ligation of the left ureter as described by Jin et al. [Lab Invest, 93: 801-811, 2013]. After the operation, UUO mice were randomly divided into control group (vehicle) and treatment group. Mice were fed with test compound by oral gavage at a dose of 200 μg/kg body weight per day for 7 days.
Immunofluorescence staining was conducted on paraffin-embedded kidney sections using standard procedures. Briefly, deparaffinized sections were incubated with primary antibody against collagen I (1:50, #NB6-00-4-8, Novus) at 4° C. overnight. After being washed, sections were incubated with Alexa Fluor488-labelled second antibody (1:200, #A11034, Invitrogen) at room temperature for 1 hour in darkness. After nuclei were stained with 4′, 6-diamidino-2-phenyllindole (DAPI) slides were mounted using Aqua PolyMount (Polysciences, Inc) and images were acquired using AxioVision IIe microscope with a digital camera.
Renal fibrosis was evaluated histologically by Sirius red staining on paraffin slides of mice kidney tissues according to the manufacturer's instructions (#ab150681, Abcam). Masson's trichrome staining on paraffin slices of mice kidney tissue was performed according to manufacturer's instructions (#87019, Thermo Scientific).
The unilateral ureteral obstruction (UUO) mouse model, a commonly used model for renal fibrosis, was used to determine whether compounds of the invention can ameliorate fibrosis in vivo. […]

[3] = target: T1, HIPK2-Smad3 interaction (Homo sapiens, UniProt Q9H2X6); experiment: His6-HIPK2 cobalt resin pull-down of endogenous Smad3 in 293T cells; type: cell-based; conditions: 293T cells overexpressing His6-HIPK2, two different doses
T1 construct: host or cells: HEK 293T
T1 sequence (Q9H2X6 whole entry): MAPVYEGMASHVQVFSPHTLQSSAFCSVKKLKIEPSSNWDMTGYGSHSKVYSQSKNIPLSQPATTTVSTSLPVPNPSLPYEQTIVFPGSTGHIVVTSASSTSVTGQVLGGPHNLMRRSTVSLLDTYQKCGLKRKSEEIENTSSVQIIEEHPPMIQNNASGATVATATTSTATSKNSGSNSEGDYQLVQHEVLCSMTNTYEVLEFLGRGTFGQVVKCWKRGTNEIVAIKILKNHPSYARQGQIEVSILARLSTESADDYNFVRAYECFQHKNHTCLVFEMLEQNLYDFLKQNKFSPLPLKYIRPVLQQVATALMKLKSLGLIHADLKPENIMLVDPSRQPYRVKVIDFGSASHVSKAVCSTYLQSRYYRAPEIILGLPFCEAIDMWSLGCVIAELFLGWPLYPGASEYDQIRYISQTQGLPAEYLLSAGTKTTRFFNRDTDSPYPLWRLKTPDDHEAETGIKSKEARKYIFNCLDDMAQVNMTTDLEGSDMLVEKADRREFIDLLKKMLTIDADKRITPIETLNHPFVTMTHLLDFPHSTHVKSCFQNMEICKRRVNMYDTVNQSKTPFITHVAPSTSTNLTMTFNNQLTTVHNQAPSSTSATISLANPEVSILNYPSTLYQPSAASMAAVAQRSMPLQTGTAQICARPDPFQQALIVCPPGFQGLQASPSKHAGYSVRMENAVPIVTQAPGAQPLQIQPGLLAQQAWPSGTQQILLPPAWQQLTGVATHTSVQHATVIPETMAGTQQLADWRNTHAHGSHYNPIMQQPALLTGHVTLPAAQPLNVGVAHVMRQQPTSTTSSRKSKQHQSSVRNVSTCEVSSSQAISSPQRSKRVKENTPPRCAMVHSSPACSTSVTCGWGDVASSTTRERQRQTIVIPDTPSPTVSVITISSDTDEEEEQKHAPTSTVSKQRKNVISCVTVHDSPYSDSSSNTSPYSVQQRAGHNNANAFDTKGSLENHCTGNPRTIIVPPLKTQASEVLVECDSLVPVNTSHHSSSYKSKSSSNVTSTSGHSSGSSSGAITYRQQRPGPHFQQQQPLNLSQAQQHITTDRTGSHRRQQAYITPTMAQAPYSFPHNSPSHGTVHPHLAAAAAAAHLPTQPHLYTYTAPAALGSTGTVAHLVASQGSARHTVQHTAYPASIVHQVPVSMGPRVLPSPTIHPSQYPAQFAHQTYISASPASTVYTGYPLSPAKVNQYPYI
Protocol: 4×Smad binding element-driven firefly luciferase (SBE4-Luc) plasmid was purchased from Addgene (#16495). Renilla luciferase reporter plasmid (pRL) was purchased from Promega. Active domain deleted HIPK2 was previously described by Jin et al. [Nat Med, 18: 580-588]. The His6-HIPK2 construct was generated by PCR amplification of coding region using plasmid containing human HIPK2 gene (GeneCopoeia™) as the template.
293T cells were lysed in equilibration/wash buffer (50 mM sodium phosphate, 300 mM sodium chloride, 10 mM imidazole; pH 7.4) 48 hours after transfection of His6-tagged HIPK2 expression plasmid. Cleared cell lysate was incubated with HisPur Cobalt resin (Thermo Fisher Scientific, NY) on end-over-end rotator at 4° C. for 2 hours. After centrifugation (700×g, 2 min, 4° C.), the resin was washed 3 times in a wash buffer. The bound protein complexes were finally eluted with elution buffer (50 mM sodium phosphate, 500 mM sodium chloride, 150 mM imidazole; pH 7.4) and subjected to western blot analysis.
Cells were lysed in M-PER mammalian protein extraction reagent (#78501, Thermo Fisher Scientific, NY) containing protease inhibitor cocktail (#11836153001, Roche) and phosphatase inhibitors (50 mM NaF, 10 mM β-glycerophosphate, 5 mM sodium pyrophosphate, 2 mM Na3VO4). Total protein concentration was measured using the Bradford reagent (#500-0006, Bio-Rad). […]

[4] = tested on: Smad3-responsive luciferase reporter (SBE4-Luc); conditions: for suppression of Smad3 reporter activity, inhibition compared to DMSO control: absence of TGF-β1 stimulation
Protocol: Human primary tubular cells (PromoCell GmbH, Heidelberg, Germany) were cultured in Renal Epithelial Cell Growth Medium-2 (Promocell GmbH) with supplements according to manufacturer's protocol human primary renal tubular epithelial cells with <5 passages were used for all studies. For HIV infection of hRTECs, pNL4-3:ΔG/P-EGFP, a gag/poi-deleted HIV-1 construct that contains EGFP in the gag open reading frame, and pHR-IRES-EGFP, a control EGFP construct, were used to generate the VSV-G pseudotyped virus. Cells were infected with HIV pseudotyped virus or control virus for 2 days before the treatment with test compound.
Forty-eight hours post-transfection cells were treated with assigned concentrations of test compound together with or without 10 ng/ml TGF-β1 for 16 hours. Luciferase activities were measured using the Dual-Luciferase Reporter Assay kit (Promega, #E1910). Data are expressed as the ratio of firefly luciferase activity over Renilla luciferase activity. […] 48 hours after transfection, luciferase activities were measured.

HIPK2, sequence (Q9H2X6 whole entry): as above

With `COc1ccc2cc(-c3nc(-c4ccc(Br)cc4)no3)cnc2c1` [Example 1, 3-(4-Bromophenyl)-5-(7-methoxyquinolin-3-yl)-1,2,4-oxadiazole] the “protection of HIPK2 from pronase digestion (DARTS)” value ([1]; 30 μm) was “partial protection”, the “protection of HIPK2 from pronase digestion (DARTS)” value ([1]; 100 μm) was “complete protection” and the “protection of HIPK2 from pronase degradation (DARTS)” value ([1]; versus DMSO control) was “protected from degradation”. The “expression of Wnt/β-catenin pathway genes (Axin2, c-myc, Twist), real-time PCR” value ([2]; UUO kidneys, treatment day 7 to 14) was “significantly diminished”, the “Smad3 phosphorylation and α-SMA expression in UUO kidneys (western blot)” value ([2]; UUO mice, 200 μg/kg/day oral gavage, day of surgery to 7 days post-surgery) was “significantly decreased” and the “renal fibrosis (picrosirius red, Masson's trichrome, Collagen I immunofluorescence)” value ([2]; UUO mice, 200 μg/kg/day oral gavage, day of surgery to 7 days post-surgery, vs vehicle) was “significantly attenuated renal fibrosis”. The “fibrosis at 14 days post-surgery (picosirius red, Masson's trichrome, Collagen I immunofluorescence)” value ([2]; UUO mice, listed as BT173) was “significant attenuation of fibrosis”, the “fibrosis at 14 days post-surgery (picosirius red, Masson's trichrome, Collagen I immunofluorescence)” value ([2]; UUO mice, listed as Example I) was “showed efficacy in amelioration of fibrosis progression” and the “p53 activation (phosphorylation) in UUO kidneys” value ([2]; UUO mice, treatment day 7 to 14) was “no effects”. For the same molecule, the “p-Smad3 and α-SMA in kidney cortex (western blot)” value ([2]; UUO mice, treatment day 7 to 14, vs vehicle-treated UUO kidneys) was “marked reduction”, the “interaction between Smad3 and HIPK2 (His6-HIPK2 pull-down)” value [3] was “reduced the interaction between Smad3 and HIPK2 in a dose-dependent manner” and the “Luciferase Activity (Relative to DMSO control) −TGFβ” value [4] was 0.197. The “suppression of Smad3 reporter activity, inhibition compared to DMSO control” value ([4]; 3.3 μm) was roughly 40%, the “suppression of Smad3 reporter activity, inhibition compared to DMSO control” value ([4]; 10 μm) was roughly 70% and the “SBE4-luciferase activity, inhibition compared to TGFβ1-treated only control” value ([4]; presence of TGF-β1, first of three tested doses) was roughly 40%. For the same molecule, the “SBE4-luciferase activity, inhibition compared to TGFβ1-treated only control” value ([4]; presence of TGF-β1, second of three tested doses) was roughly 60% and the “SBE4-luciferase activity, inhibition compared to TGFβ1-treated only control” value ([4]; presence of TGF-β1, third of three tested doses) was roughly 75%.
